Experimental data: ChEMBL document CHEMBL1141260, “Biologically active indole alkaloids from Kopsia arborea” (J Nat Prod, 2007)
In brackets after ≈: the same amount, converted by molar mass.

Experiments:
Type in all cases: functional, cell-based
KB = test: Cytotoxicity against vincristine-sensitive human KB cells
[1] = Cytotoxicity against vincristine-resistant human KB/VJ300 cells
[2] = Cytotoxicity against vincristine-resistant human KB/VJ300 cells in presence of 0.1 ug/mL vincristine
Jurkat = test: Cytotoxicity against human Jurkat cells

| SMILES | IC50 (KB) [µg/mL] | IC50 [1] [µg/mL] | IC50 [2] [µM] | IC50 (Jurkat) [µg/mL] |
| --- | --- | --- | --- | --- |
| COC(=O)C1=C2Nc3ccccc3[C@]23CCN2CC[C@H]1[C@H]([C@@H](C)OC)[C@@H]23 | > 25 | > 25 | 27.1 | > 25 |
| C/C=C1\[C@@H](C(C)=O)CCN2CCc3c([nH]c4ccccc34)[C@H]12 [ARBORICININE] | > 25 | > 25 | 31.3 | > 25 |
| COC(=O)C1=C2Nc3ccccc3[C@]23CCN2CC[C@H]1[C@H]([C@H](C)OC)[C@@H]23 | > 25 | > 25 | 26.8 | > 25 |
| C=C1C2=Nc3ccccc3[C@@]23CCN2C/C(=C/C)[C@@H]1C[C@H]23 [VALPARICINE] | 3.6 (≈ 13 µM) | 0.75 (≈ 2.71 µM) | 1.67 | 0.25 (≈ 0.905 µM) |
| CC[C@]12CCCNC13/C(=C\C(=O)OC)c1ccccc1N3C(=O)CC2 (some centres not stated) [ARBOLOSCINE] | 15 (≈ 44.1 µM) | 11 (≈ 32.3 µM) | 11.2 |  |
| C/C=C1/CN2CCc3c([nH]c4ccccc34)[C@H]2C[C@@H]1C(C)=O [ARBORICINE] | > 25 | > 25 | 36.7 | > 25 |
| CC[C@]12CCCN3CC[C@]4(C(=C(C(=O)OC)C1)Nc1ccccc14)[C@@H]32 [VINCADIFFORMINE] | 10.2 (≈ 30.1 µM) | 6.3 (≈ 18.6 µM) | 13.3 | 21.8 (≈ 64.4 µM) |
